Entries after “also recorded” stand apart in the source; their conditions may differ. Read-outs that look alike come from different tables or passages of the source.
Experiments:
[1] = 28-day repeat-dose oral toxicokinetics; format: in vivo, Bama minipig; conditions: for AUC(0-t): read-out: AUC0-24
Procedure: Toxicokinetics of ribitol was evaluated as part of the 28-day toxicology study in male and female Bama minipig. […] Animals in control group were dosed for 28 days twice daily with the vehicle only (Purified Water). On Days 1 and 28, blood samples were collected at 0 (pre first dose), 0.5, 1, 2, 4, 6 (pre-second dose), 6.5, 7, 8, 10, 12, and 24 hours from all available animals.

matriglycan expression = assay: Matriglycan expression in wild type mice; format: in vivo, mouse; conditions: one month, 5% ribitol in drinking water; vs vehicle
Procedure: Wild type mice were dosed with ribitol to assess matriglycan expression in normal mice. The mice were treated for one month with 5% ribitol in drinking water ad libitum. Muscle samples were evaluated for matriglycan expression at the end of dosing via Western Blot analysis (FIG. 9).

HPBLs = assay: In vitro micronucleus assay; format: cell-based, human
Procedure: In this GLP-compliant study, ribitol was tested to evaluate the potential to induce micronuclei in HPBLs in both the absence and presence of S9. HPBL cells were treated for 4 hours in the absence and presence of S9, and for 24 hours in the absence of S9. Purified water was used as the vehicle. In the preliminary toxicity assay, the doses tested ranged from 0.0152 to 152 μg/mL (1 mM), which was the limit dose for this assay.

[2] = 28-day oral GLP toxicity study with 14-day recovery; conditions: mouse
Procedure: The purpose of this GLP study was to assess the potential toxicity, reversibility, persistence, or delayed effects of ribitol in mice following 28 days of BID oral gavage dosing. In addition, 20 mice/sex/group were treated for 28 days with either vehicle (purified water), 0.5, 1.0, or 1.5 g/kg/dose ribitol BID (1.0, 2.0, or 3.0 g/kg/day) followed by 14-day treatment free recovery period. In-life assessments included mortality, clinical signs including detailed clinical observations pre-test and once weekly during the dosing and recovery phase, body weight, food consumption, ophthalmology, and clinical pathology (hematology and serum chemistry). Terminal endpoints included macroscopic pathology, organ weights and histopathology. Blood was taken from a satellite group of mice for plasma TK (3/sex/timepoint) on Days 1 and 28.

[3] = Single intravenous dose PK; format: in vivo, CD-1 mouse; conditions: for CLs: CD-1 mice; for clearance: read-out: Systemic clearance (CLs)
Procedure: The PK of ribitol was studied in male and female CD-1 mice following three IV doses at 10, 30, and 100 mg/kg (n=3/dose/sex). Blood samples were collected serially up to 24 hours post dose.

hERG = hERG (Homo sapiens, UniProt Q12809); assay: in vitro
Procedure: Therefore, the concentrations chosen for the definitive hERG assay were 0.1, 0.3, 1, and 3 mM, the detected concentrations of postperfusion solution were 0.101, 0.293, 0.999, and 2.90 mM, respectively.

[4] = 1.0 g/kg/dose BID (2.0 g/kg/day, NOAEL), Day 28, Female
[5] = 1.0 g/kg/dose BID (2.0 g/kg/day, NOAEL), Day 28, Male

Chain of hERG (Q12809 whole entry): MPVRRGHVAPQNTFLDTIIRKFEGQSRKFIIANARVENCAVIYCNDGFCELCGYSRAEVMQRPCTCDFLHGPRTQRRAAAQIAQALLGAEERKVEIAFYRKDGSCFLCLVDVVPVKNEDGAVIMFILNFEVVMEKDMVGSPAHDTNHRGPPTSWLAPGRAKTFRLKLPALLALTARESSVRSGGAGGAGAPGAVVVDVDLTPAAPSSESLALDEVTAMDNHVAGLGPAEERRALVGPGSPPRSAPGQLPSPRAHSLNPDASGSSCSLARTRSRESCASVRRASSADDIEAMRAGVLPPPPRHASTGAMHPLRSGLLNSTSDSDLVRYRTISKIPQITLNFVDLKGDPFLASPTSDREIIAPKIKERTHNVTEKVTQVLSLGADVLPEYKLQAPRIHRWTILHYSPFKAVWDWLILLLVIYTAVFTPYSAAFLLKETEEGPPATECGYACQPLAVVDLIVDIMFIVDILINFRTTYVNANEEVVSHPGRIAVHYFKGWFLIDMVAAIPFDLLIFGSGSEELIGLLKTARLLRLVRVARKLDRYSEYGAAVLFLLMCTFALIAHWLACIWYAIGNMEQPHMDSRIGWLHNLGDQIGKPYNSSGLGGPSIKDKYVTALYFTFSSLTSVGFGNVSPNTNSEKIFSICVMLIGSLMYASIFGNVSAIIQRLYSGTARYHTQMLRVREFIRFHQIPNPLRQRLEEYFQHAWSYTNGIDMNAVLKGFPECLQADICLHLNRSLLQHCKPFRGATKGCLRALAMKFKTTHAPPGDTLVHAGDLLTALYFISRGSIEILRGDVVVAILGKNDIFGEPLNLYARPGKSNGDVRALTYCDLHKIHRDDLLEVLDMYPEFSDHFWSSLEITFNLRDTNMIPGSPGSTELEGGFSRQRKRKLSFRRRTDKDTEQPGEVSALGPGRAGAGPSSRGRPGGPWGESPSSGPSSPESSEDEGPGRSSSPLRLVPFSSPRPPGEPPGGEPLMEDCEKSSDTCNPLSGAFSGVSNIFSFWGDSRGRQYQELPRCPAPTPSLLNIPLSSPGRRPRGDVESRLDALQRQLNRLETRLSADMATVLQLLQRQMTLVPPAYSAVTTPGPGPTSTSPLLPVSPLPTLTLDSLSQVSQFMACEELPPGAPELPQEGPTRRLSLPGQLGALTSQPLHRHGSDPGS

OC[C@@H](O)[C@@H](O)[C@@H](O)CO [ribitol, (2R,3s,4S)-Pentane-1,2,3,4,5-pentol]
AUC0-24 [1, 4]: 1980 ± 1040 µg·h/mL | Cmax [1, 4]: 281 ± 141 µg/mL | AUC0-24 [1, 5]: 2560 ± 526 µg·h/mL | Cmax [1, 5]: 475 ± 97.7 µg/mL | drug accumulation ([1]; after 28-day repeated oral administration, any dose level): no marked drug accumulation; also recorded: no apparent ribitol drug accumulation | Tmax ([1]; both sexes, Bama, minipig, plasma, oral, post dose and post second dose, Day 1 or Day 28, range): 0.5 to 2 h | AUC(0-t) ([1]; female, Bama, minipig, plasma, po, 0.1 g/kg, 0.1 g/kg/dose BID, Day 1, Female, mean ± SD): 268 ± 129 µg·h/mL | Cmax ([1]; female, Bama, minipig, plasma, po, 0.1 g/kg, 0.1 g/kg/dose BID, Day 1, Female, mean ± SD, read-out: Cmax): 39.6 ± 23.3 µg/mL | Tmax ([1]; female, Bama, minipig, plasma, po, 0.1 g/kg, 0.1 g/kg/dose BID, Day 1, Female, median (range)): 5 h | AUC(0-t) ([1]; female, Bama, minipig, plasma, po, 0.1 g/kg, 0.1 g/kg/dose BID, Day 28, Female, mean ± SD): 257 ± 82.6 µg·h/mL | Cmax ([1]; female, Bama, minipig, plasma, po, 0.1 g/kg, 0.1 g/kg/dose BID, Day 28, Female, mean ± SD, read-out: Cmax): 37.2 ± 17.8 µg/mL | Tmax ([1]; female, Bama, minipig, plasma, po, 0.1 g/kg, 0.1 g/kg/dose BID, Day 28, Female, median (range)): 7 h | AUC(0-t) ([1]; female, Bama, minipig, plasma, po, 0.3 g/kg, 0.3 g/kg/dose BID, Day 1, Female, mean ± SD): 605 ± 83.4 µg·h/mL | Cmax ([1]; female, Bama, minipig, plasma, po, 0.3 g/kg, 0.3 g/kg/dose BID, Day 1, Female, mean ± SD, read-out: Cmax): 98.4 ± 28 µg/mL | Tmax ([1]; female, Bama, minipig, plasma, po, 0.3 g/kg, 0.3 g/kg/dose BID, Day 1, Female, median (range)): 4.3 h | AUC(0-t) ([1]; female, Bama, minipig, plasma, po, 0.3 g/kg, 0.3 g/kg/dose BID, Day 28, Female, mean ± SD): 894 ± 125 µg·h/mL | Cmax ([1]; female, Bama, minipig, plasma, po, 0.3 g/kg, 0.3 g/kg/dose BID, Day 28, Female, mean ± SD, read-out: Cmax): 139 ± 40.9 µg/mL | Tmax ([1]; female, Bama, minipig, plasma, po, 0.3 g/kg, 0.3 g/kg/dose BID, Day 28, Female, median (range)): 4.3 h | AUC(0-t) ([1]; female, Bama, minipig, plasma, po, 1 g/kg, 1.0 g/kg/dose BID (2.0 g/kg/day, NOAEL), Day 28, Female): 1980 µg·h/mL | Cmax ([1]; female, Bama, minipig, plasma, po, 1 g/kg, 1.0 g/kg/dose BID (2.0 g/kg/day, NOAEL), Day 28, Female, read-out: Cmax): 281 µg/mL | AUC(0-t) ([1]; female, Bama, minipig, plasma, po, 1 g/kg, 1.0 g/kg/dose BID, Day 1, Female, mean ± SD): 1770 ± 582 µg·h/mL | Cmax ([1]; female, Bama, minipig, plasma, po, 1 g/kg, 1.0 g/kg/dose BID, Day 1, Female, mean ± SD, read-out: Cmax): 261 ± 82.4 µg/mL | Tmax ([1]; female, Bama, minipig, plasma, po, 1 g/kg, 1.0 g/kg/dose BID, Day 1, Female, median (range)): 6.8 h | Tmax ([1]; female, Bama, minipig, plasma, po, 1 g/kg, 1.0 g/kg/dose BID, Day 28, Female, median (range)): 7 h | AUC(0-t) ([1]; female, Bama, minipig, plasma, po, 2 g/kg/day, 1.0 g/kg/dose BID (2.0 g/kg/day, NOAEL), Day 28, Female): 1980 µg·h/mL | Cmax ([1]; female, Bama, minipig, plasma, po, 2 g/kg/day, 1.0 g/kg/dose BID (2.0 g/kg/day, NOAEL), Day 28, Female, read-out: Cmax): 281 µg/mL | AUC(0-t) ([1]; male, Bama, minipig, plasma, po, 0.1 g/kg, 0.1 g/kg/dose BID, Day 1, Male, mean ± SD): 210 ± 75 µg·h/mL | Cmax ([1]; male, Bama, minipig, plasma, po, 0.1 g/kg, 0.1 g/kg/dose BID, Day 1, Male, mean ± SD, read-out: Cmax): 39.8 ± 16.8 µg/mL | Tmax ([1]; male, Bama, minipig, plasma, po, 0.1 g/kg, 0.1 g/kg/dose BID, Day 1, Male, median (range)): 6.8 h | AUC(0-t) ([1]; male, Bama, minipig, plasma, po, 0.1 g/kg, 0.1 g/kg/dose BID, Day 28, Male, mean ± SD): 215 ± 68.9 µg·h/mL | Cmax ([1]; male, Bama, minipig, plasma, po, 0.1 g/kg, 0.1 g/kg/dose BID, Day 28, Male, mean ± SD, read-out: Cmax): 37.2 ± 14.2 µg/mL | Tmax ([1]; male, Bama, minipig, plasma, po, 0.1 g/kg, 0.1 g/kg/dose BID, Day 28, Male, median (range)): 3.8 h | AUC(0-t) ([1]; male, Bama, minipig, plasma, po, 0.3 g/kg, 0.3 g/kg/dose BID, Day 1, Male, mean ± SD): 539 ± 215 µg·h/mL | Cmax ([1]; male, Bama, minipig, plasma, po, 0.3 g/kg, 0.3 g/kg/dose BID, Day 1, Male, mean ± SD, read-out: Cmax): 104 ± 52.1 µg/mL | Tmax ([1]; male, Bama, minipig, plasma, po, 0.3 g/kg, 0.3 g/kg/dose BID, Day 1, Male, median (range)): 4.3 h | AUC(0-t) ([1]; male, Bama, minipig, plasma, po, 0.3 g/kg, 0.3 g/kg/dose BID, Day 28, Male, mean ± SD): 585 ± 227 µg·h/mL | Cmax ([1]; male, Bama, minipig, plasma, po, 0.3 g/kg, 0.3 g/kg/dose BID, Day 28, Male, mean ± SD, read-out: Cmax): 123 ± 78.2 µg/mL | Tmax ([1]; male, Bama, minipig, plasma, po, 0.3 g/kg, 0.3 g/kg/dose BID, Day 28, Male, median (range)): 0.8 h | AUC(0-t) ([1]; male, Bama, minipig, plasma, po, 1 g/kg, 1.0 g/kg/dose BID (2.0 g/kg/day, NOAEL), Day 28, Male): 2560 µg·h/mL | Cmax ([1]; male, Bama, minipig, plasma, po, 1 g/kg, 1.0 g/kg/dose BID (2.0 g/kg/day, NOAEL), Day 28, Male, read-out: Cmax): 475 µg/mL | AUC(0-t) ([1]; male, Bama, minipig, plasma, po, 1 g/kg, 1.0 g/kg/dose BID, Day 1, Male, mean ± SD): 1930 ± 373 µg·h/mL | Cmax ([1]; male, Bama, minipig, plasma, po, 1 g/kg, 1.0 g/kg/dose BID, Day 1, Male, mean ± SD, read-out: Cmax): 365 ± 93.6 µg/mL | Tmax ([1]; male, Bama, minipig, plasma, po, 1 g/kg, 1.0 g/kg/dose BID, Day 1, Male, median (range)): 3.8 h | Tmax ([1]; male, Bama, minipig, plasma, po, 1 g/kg, 1.0 g/kg/dose BID, Day 28, Male, median (range)): 0.8 h | AUC(0-t) ([1]; male, Bama, minipig, plasma, po, 2 g/kg/day, 1.0 g/kg/dose BID (2.0 g/kg/day, NOAEL), Day 28, Male): 2560 µg·h/mL | Cmax ([1]; male, Bama, minipig, plasma, po, 2 g/kg/day, 1.0 g/kg/dose BID (2.0 g/kg/day, NOAEL), Day 28, Male, read-out: Cmax): 475 µg/mL | matriglycan expression (Western Blot) (matriglycan expression): No increase in matriglycan expression | cytotoxicity (HPBLs; 0.0152 to 152 μg/mL, with and without S9): Cytotoxicity was not observed | induction of micronuclei (HPBLs; 19 to 152 μg/mL, presence and absence of S9): negative; also recorded: devoid of genotoxicity potential | NOAEL ([2]; 28 days oral): 1.5 g/kg/dose BID | time to resolution of soft or abnormal stools ([2]; in vivo): 2 to 8 days | AUC(0-inf) ([3]; CD-1, mouse, plasma, IV 10 mg/kg, female): 13.3 µg·h/mL | Vd ([3]; CD-1, mouse, plasma, IV 10 mg/kg, female, read-out: Vss): 4.27 L/kg | AUC(0-inf) ([3]; CD-1, mouse, plasma, IV 10 mg/kg, male): 7.32 µg·h/mL | Vd ([3]; CD-1, mouse, plasma, IV 10 mg/kg, male, read-out: Vss): 1.49 L/kg | AUC(0-inf) ([3]; CD-1, mouse, plasma, IV 30 mg/kg, female): 20.1 µg·h/mL | Vd ([3]; CD-1, mouse, plasma, IV 30 mg/kg, female, read-out: Vss): 3 L/kg | AUC(0-inf) ([3]; CD-1, mouse, plasma, IV 30 mg/kg, male): 22.3 µg·h/mL | Vd ([3]; CD-1, mouse, plasma, IV 30 mg/kg, male, read-out: Vss): 6.74 L/kg | AUC(0-inf) ([3]; CD-1, mouse, plasma, IV 100 mg/kg, female): 43.1 µg·h/mL | Vd ([3]; CD-1, mouse, plasma, IV 100 mg/kg, female, read-out: Vss): 2.67 L/kg | AUC(0-inf) ([3]; CD-1, mouse, plasma, IV 100 mg/kg, male): 49.7 µg·h/mL | Vd ([3]; CD-1, mouse, plasma, IV 100 mg/kg, male, read-out: Vss): 2.01 L/kg | CLs ([3]; IV 10 mg/kg, female): 12.6 mL/min/kg | CLs ([3]; IV 10 mg/kg, male): 23.4 mL/min/kg | clearance ([3]; both sexes, CD-1, plasma, mouse, IV 100 mg/kg, range): 33.6 to 38.9 mL/min/kg | clearance ([3]; both sexes, CD-1, plasma, mouse, IV 10 and 30 mg/kg, range): 12.6 to 25 mL/min/kg | Vd ([3]; both sexes, CD-1, plasma, mouse, IV, range, read-out: Volume of distribution at steady state (Vss)): 1.49 to 6.74 L/kg | inhibition at 0.03 mM (hERG): 3.09% | inhibition at 0.3 mM (hERG): 6.43% | inhibition at 3 mM (hERG): 7.82%
